Literature values in patent publication US20070122366A1 (priority 2005, published 2007).

What was measured:
[1] = oral administration

- persistence of concentration in nails ([1]; after the treatment has finished): at least 30 weeks
- time at which concentration in nails is detected ([1]; after therapy started): within the first week
SMILES: CN(C/C=C/C#CC(C)(C)C)Cc1cccc2ccccc12 [Terbinafine]
- average mycological cure (onychomycosis; 18 randomized controlled trials, onychomycosis): 76%
- activity in comparative studies (onychomycosis; treatment of toenail onychomycosis): greater than itraconazole and fluconazole
